Assay results reported in patent US9340493B2, “Hydroxamic acid derivatives useful as antibacterial agents” (Pfizer Inc., priority 2008, dated 2016).
Values after ≈ are worked out from the molar mass of the structure shown.

Tests used:
Enterobacter aerogenes = test: MIC determination, E. aerogenes; assay type: cell-based; details: Klebsiella aerogenes; quinolone-resistant, ESBL-expressing clinical isolate; * = arithmetic mean of 2-6 MIC determinations; read-out: MIC (ug/mL) E. aerogenes
Outline: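 Clinical E. aerogenes isolate, quinolone-resistant and ESBL-expressing. MIC measured in vitro by dilution testing according to CLSI guidelines (M7-A7, M100-S18).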

[1] = system: Acinetobacter baumanii/haemolyticus; test: MIC determination, A. baumanii/haemolyticus; assay type: cell-based; details: Acinetobacter baumannii; multidrug-resistant clinical isolate; * = arithmetic mean of 2-6 MIC determinations; read-out: MIC (ug/mL) A. baumanii/haemolyticus
Outline: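 MICs were determined by CLSI broth dilution (M7-A7, M100-S18) against a multidrug-resistant clinical isolate of Acinetobacter baumanii/haemolyticus.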

P. aeruginosa UI-18 = test: MIC determination, P. aeruginosa UI-18; assay type: cell-based; details: Pseudomonas aeruginosa, UI18; wild-type; * = arithmetic mean of 2-6 MIC determinations; read-out: MIC (ug/mL) P. aeruginosa UI-18
Outline: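 MIC by broth dilution following CLSI M7-A7 and M100-S18 guidelines, tested against wild-type P. aeruginosa UI-18.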

[2] = molecular target: T1, Pseudomonas aeruginosa LpxC enzyme (Pseudomonas aeruginosa, UniProt P47205); test: IC50 assay, LpxC enzyme from P. aeruginosa; assay type: biochemical; details: 0.5 nM enzyme, 25° C., pH 8.0, 20 min; ** = average of 2-8 assays
T1 construct: made in house; host or cells: E. coli
T1 sequence (P47205 1-303): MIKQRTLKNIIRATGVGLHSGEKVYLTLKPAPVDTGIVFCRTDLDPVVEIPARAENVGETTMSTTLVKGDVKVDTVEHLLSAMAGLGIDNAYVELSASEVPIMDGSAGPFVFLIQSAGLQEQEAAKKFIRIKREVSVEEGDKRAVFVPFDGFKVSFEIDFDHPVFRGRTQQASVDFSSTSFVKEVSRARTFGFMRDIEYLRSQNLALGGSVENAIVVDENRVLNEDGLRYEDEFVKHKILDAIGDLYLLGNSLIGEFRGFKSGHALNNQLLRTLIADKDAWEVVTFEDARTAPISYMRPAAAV
Outline: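 P. aeruginosa LpxC (0.5 nM, expressed in E. coli) reacted with 0.5 uM ³H-acetyl-labelled UDP-3-O-(R-3-hydroxydecanoyl)-GlcNAc in 50 mM sodium phosphate pH 8.0 with 1 mg/ml BSA at 25 °C for 20 min. Charcoal stopped the reaction, and filtrate radioactivity was counted by scintillation after no-enzyme background subtraction.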

P. aeruginosa PAO280 = test: MIC determination, P. aeruginosa PAO280; assay type: cell-based; details: Pseudomonas aeruginosa, PAO280, read-out: MIC (ug/mL) P. aeruginosa PAO280
Outline: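 Broth dilution MIC per CLSI M7-A7/M100-S18 guidelines. Strain PAO280 lacks efflux pumps MexAB-oprM, MexXY and MexZ.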

Klebsiella pneumoniae = test: MIC determination, K. pneumoniae; assay type: cell-based; details: ciprofloxacin-resistant, ESBL-expressing clinical isolate, * = arithmetic mean of 2-6 MIC determinations, read-out: MIC (ug/mL) K. pneumoniae
Outline: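 MIC determined by broth dilution per CLSI M7-A7 and M100-S18 guidelines. Strain: ciprofloxacin-resistant, ESBL-expressing clinical isolate of K. pneumoniae.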

[3] = system: Staphylococcus aureus ATCC 29213; test: MIC determination, S. aureus ATCC 29213; assay type: cell-based; details: ATCC29213, CLSI quality control reference strain, * = arithmetic mean of 2-6 MIC determinations, read-out: MIC (ug/mL) S. aureus ATCC 29213
Outline: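 MIC was measured by dilution susceptibility testing following CLSI guidelines (M7-A7; M100-S18). The test organism is the CLSI quality-control reference strain.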

Escherichia coli EC-1 = test: MIC determination, E. coli EC-1; assay type: cell-based; details: EC1, EC-1: VOGEL, * = arithmetic mean of 2-6 MIC determinations, read-out: MIC (ug/mL) E. coli EC-1
Outline: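 Minimum inhibitory concentration against Escherichia coli EC-1 was determined in vitro by dilution susceptibility testing under CLSI M7-A7 and M100-S18 guidelines.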

Serratia marcescens = test: MIC determination, S. marcescens; assay type: cell-based; details: multidrug-resistant clinical isolate, * = arithmetic mean of 2-6 MIC determinations, read-out: MIC (ug/mL) S. marcescens
Method: MIC determinations: The in vitro antibacterial activity of compounds described in the Examples was evaluated by minimum inhibitory concentration (MIC) testing according to Clinical and Laboratory Standards Institute (CLSI, formerly NCCLS) guidelines. See: Clinical and Laboratory Standards Institute. Methods for Dilution Antimicrobial Susceptibility Tests for Bacteria that Grow Aerobically; Approved Standard-Seventh Edition. CLSI document M7-A7 [ISBN 1-56238-587-9]. Clinical and Laboratory Standards Institute, 940 West Valley Road, Suite 1400, Wayne, Pa. 19087-1898 USA, 2006; also Clinical and Laboratory Standards Institute. Performance Standards for Antimicrobial Susceptibility Testing; Eighteenth Informational Supplement. CLSI document M100-S18 [ISBN1-56238-653-0]. Clinical and Laboratory Standards Institute.
The following bacterial strains were used:
Serratia marcescens: Multidrug-resistant clinical isolate.

SMILES | MIC (Enterobacter aerogenes) [µg/mL] | MIC [1] [µg/mL] | MIC (P. aeruginosa UI-18) [µg/mL] | IC50 [2] [µM] | MIC (P. aeruginosa PAO280) [µg/mL] | MIC (Klebsiella pneumoniae) [µg/mL] | MIC [3] [µg/mL] | MIC (Escherichia coli EC-1) [µg/mL] | MIC (Serratia marcescens) [µg/mL]
CC(C)[C@H](O)[C@](C)(OCc1ccc(-c2ccccc2)cc1)C(=O)NO [Example 3, (2S,3S)-2-(biphenyl-4-ylmethoxy)-N,3-dihydroxy-2,4-dimethylpentanamide] | > 64 | > 64 | > 64 | 0.0716 | 32 (≈ 93.2 µM) | > 64 | > 64 | > 64 | > 64
CCCC[C@H](O)[C@](C)(OCc1ccc(-c2ccccc2)cc1)C(=O)NO [Example 5, (2S,3S)-2-(biphenyl-4-ylmethoxy)-N,3-dihydroxy-2-methylheptanamide] | > 64 | > 64 | > 64 | 0.0878 | 16 (≈ 44.8 µM) | > 64 | 64 (≈ 179 µM) | > 64 | > 64
CC(C)C[C@H](O)[C@](C)(OCc1ccc(-c2ccccc2)cc1)C(=O)NO [Example 6, (2S,3S)-2-(biphenyl-4-ylmethoxy)-N,3-dihydroxy-2,5-dimethylhexanamide] | > 64 | > 64 | > 64 | 0.16 | 64 (≈ 179 µM) | > 64 | 64 (≈ 179 µM) | > 64 | > 64
C[C@@](OCc1ccc(-c2ccccc2)cc1)(C(=O)NO)[C@@H](O)CC(F)(F)F [Example 7, (2S,3S)-2-(biphenyl-4-ylmethoxy)-N,3-dihydroxy-2-methyl-5,5,5-trifluoropentanamide] | > 64 | > 64 | > 64 | 0.00953 | 2 (≈ 5.22 µM) | > 64 | 64 (≈ 167 µM) | > 64 | > 64
CCOCC[C@H](O)[C@](C)(OCc1ccc(-c2ccccc2)cc1)C(=O)NO [Example 8, (2S,3S)-2-(biphenyl-4-ylmethoxy)-5-ethoxy-N,3-dihydroxy-2-methylpentanamide] | > 64 | > 64 | > 64 | 0.0284 | 8 (≈ 21.4 µM) | > 64 | > 64 | > 64 | > 64
C[C@@](OCc1ccc(-c2ccccc2)cc1)(C(=O)NO)[C@@H](O)c1c[nH]cn1 [Example 9, (2S,3S)-2-(biphenyl-4-ylmethoxy)-N,3-dihydroxy-3-(1H-imidazol-4-yl)-2-methylpropanamide] | > 64 | > 64 | 8 (≈ 21.8 µM) | 0.00084 | 0.125 (≈ 0.34 µM) | > 64 | > 64 | > 64 | > 64
Cn1ccnc1[C@H](O)[C@](C)(OCc1ccc(-c2ccccc2)cc1)C(=O)NO [Example 10, (2S,3S)-2-(biphenyl-4-ylmethoxy)-N,3-dihydroxy-2-methyl-3-(1-methyl-1H-imidazol-2-yl)propanamide] | > 64 | 64 (≈ 168 µM) | 33 (≈ 86.5 µM) | 0.00246 | 0.19 (≈ 0.498 µM) | 48 (≈ 126 µM) | 48 (≈ 126 µM) | 48 (≈ 126 µM) | 64 (≈ 168 µM)
